Publication PMC5459475 (2017)
Each block holds one compound with its values, some of them ahead of it.

Legend:
[1] = test system: 6-FAM-CUG23 (RNA, repeat) CUGCUGCUGCUGCUGCUGCUGCUGCUGCUGCUGCUGCUGCUGCUGCUGCUGCUGCUGCUGCUGCUGCUG; experiment: fluorescence polarization; conditions: 250 mM NaCl, 50 μM ZnCl2, 50 mM Tris-HCl pH 7.0, 10% glycerol, 1 mM DTT, on ice, RNA 6 nM
[2] = test system: (CUG)12 RNA (CUGexp) (RNA, repeat) CUGCUGCUGCUGCUGCUGCUGCUGCUGCUGCUGCUG; experiment: direct fluorescence titration; conditions: log K; fitted with HypSpec; buffer of the direct titration not stated separately

binding ([1]; 100 μM pentamidine positive control): yes
SMILES: N=C(N)c1ccc(OCCCCCOc2ccc(C(=N)N)cc2)cc1

binding constant [2]: 6.5(1) logarithmic units
SMILES: CN1C(=Cc2cc[n+](C)c3ccccc23)Sc2ccccc21

binding ([1]; saturated at 250 μM): yes
SMILES: CC1Cc2c(N)nc(NCc3ccc(CNc4nc(N)c5c(n4)NC(=O)C(C)C5)cc3)nc2NC1=O (stereo not shown)

binding ([1]; pentamidine-like polarization at 37.5 μM): yes
SMILES: CC(=O)Nc1cccc(NC(=O)c2csc(NC(=O)c3ccc(Cl)cc3)n2)c1
